Test results from ChEMBL document CHEMBL1201862, “PubChem BioAssay data set” (2004).
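96-well plates; 48 h exposure; 5 concentrations. Endpoints by linear interpolation between flanking doses. Not reached: highest tested concentration assigned. GI50 marks 50% less growth.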 Calls of active or inactive are those of the source. No stated cut-off is given here; in the data, active = GI50 up to about 1.1 µM and inactive = higher.

Experiments:
Assay in all cases: inhibition of tumour cell growth, NCI panel, 48 h
[1] = test system: DU-145
[2] = test system: M14
[3] = test system: Hs-578T
[4] = test system: HL-60
[5] = test system: SN12C
[6] = test system: HCC 2998
[7] = test system: T47D
[8] = test system: SF-539
[9] = test system: SF-268
[10] = test system: UO-31
[11] = test system: SW-620
[12] = test system: LOX IMVI
[13] = test system: OVCAR-5
[14] = test system: COLO 205
[15] = test system: SK-OV-3
[16] = test system: NCI-H460
[17] = test system: HOP-62
[18] = test system: RXF 393
[19] = test system: EKVX
[20] = test system: CAKI-1

Measured: GI50

O=C1[C@@H]2[C@@H](c3ccccc3)[C@]2(Cl)C(=O)[C@H]2[C@H](c3ccccc3)[C@@]12Cl
inactive: [1] > 100 µM | [2] > 100 µM | [3] > 100 µM | [4] > 100 µM | [5] > 100 µM | [6] > 100 µM | [7] > 100 µM | [8] > 100 µM | [9] > 100 µM | [10] 57 µM | [11] > 100 µM | [12] > 100 µM | [13] > 100 µM | [14] > 100 µM | [15] > 100 µM | [16] > 100 µM | [17] > 100 µM | [18] > 100 µM | [19] > 100 µM | [20] > 100 µM

CCOC(=O)C1(Cc2ccccc2)C=CN(C(=O)c2ccccc2)C=C1
inactive: [1] 57.3 µM | [2] 35.5 µM | [3] 32.5 µM | [4] 16.6 µM | [5] 29.6 µM | [6] 63.4 µM | [7] 16.1 µM | [8] 42.9 µM | [9] 47.4 µM | [10] 45.8 µM | [11] 32.2 µM | [12] 34.4 µM | [13] > 100 µM | [14] 17.8 µM | [15] > 100 µM | [16] 51.1 µM | [17] 45.9 µM | [18] 27.5 µM | [19] 32.9 µM | [20] 38.5 µM

COc1ccc(N2C(=O)CC(=O)N(C(=O)CCCCCCCCC(=O)N3C(=O)CC(=O)N(c4ccc(OC)cc4)C3=S)C2=S)cc1
inactive: [1] > 100 µM | [2] > 100 µM | [3] > 100 µM | [4] 95.9 µM | [5] > 100 µM | [6] > 100 µM | [7] 97.9 µM | [8] > 100 µM | [9] > 100 µM | [10] 79.6 µM | [11] > 100 µM | [12] 78.3 µM | [13] > 100 µM | [14] > 100 µM | [15] > 100 µM | [16] > 100 µM | [17] > 100 µM | [18] > 100 µM | [19] > 100 µM | [20] > 100 µM

O=S(=O)(CCCCl)SCCCCl
inactive: [1] 63.8 µM | [2] 21.5 µM | [3] 27.8 µM | [4] 9.91 µM | [5] 25.1 µM | [6] > 100 µM | [7] 26.9 µM | [8] 19.4 µM | [9] 26.7 µM | [10] 65.5 µM | [11] 19.1 µM | [12] 19.2 µM | [13] > 64 µM | [14] 29 µM | [15] > 83 µM | [16] 39.4 µM | [17] > 87.5 µM | [18] 30.3 µM | [19] > 100 µM | [20] > 57.1 µM
